For data set [1], the target named is T1, E1p-h (Homo sapiens, UniProt P08559+P11177).
T1 sequence (P08559 30-390): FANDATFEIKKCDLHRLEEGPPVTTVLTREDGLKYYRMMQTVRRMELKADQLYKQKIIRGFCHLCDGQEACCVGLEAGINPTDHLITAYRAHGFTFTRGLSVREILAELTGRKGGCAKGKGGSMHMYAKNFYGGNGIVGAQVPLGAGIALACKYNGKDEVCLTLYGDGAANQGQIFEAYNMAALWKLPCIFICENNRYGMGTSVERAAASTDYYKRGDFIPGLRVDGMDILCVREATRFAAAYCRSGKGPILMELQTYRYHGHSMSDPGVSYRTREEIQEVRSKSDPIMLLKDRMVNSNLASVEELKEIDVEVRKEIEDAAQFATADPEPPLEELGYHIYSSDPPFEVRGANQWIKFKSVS
T1 sequence (P11177 31-359): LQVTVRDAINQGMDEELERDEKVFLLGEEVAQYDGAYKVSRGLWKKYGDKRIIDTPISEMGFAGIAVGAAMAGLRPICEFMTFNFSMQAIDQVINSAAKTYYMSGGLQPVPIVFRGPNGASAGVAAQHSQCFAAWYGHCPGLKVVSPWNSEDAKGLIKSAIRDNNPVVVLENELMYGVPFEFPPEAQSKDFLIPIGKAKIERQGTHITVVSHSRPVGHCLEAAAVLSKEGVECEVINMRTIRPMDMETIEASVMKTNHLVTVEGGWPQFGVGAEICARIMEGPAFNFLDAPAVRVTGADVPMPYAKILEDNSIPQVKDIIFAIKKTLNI
As to conditions: read-out: Ki,AcPhi; cited from earlier work.

The target in data set [2] is T2, E1p-ec (Escherichia coli, UniProt P0AFG8). The following applies: read-out: Kd,AcPhi; E1p-ec with ThDP; cited from earlier work.
For data set [3], the target named is T2, E1p-ec. As to conditions: read-out: Ki,AcPhi, reversible tight-binding inhibitor; cited from earlier work.
Data set [4] deals with T1, E1p-h. Briefly: CD titration of E1p-h by acetylphosphinate. The following applies: read-out: Kd,AcPhi. Format: binding.
Data set [5] has as its target T2, E1p-ec. The experiment in a line: CD titration of E1p-ec by acetylphosphinate. Format: binding. The following applies: for Kd: read-out: Kd,AcPhi.
Another data set addresses DXPS (Escherichia coli, UniProt P77488). The experiment in a line: CD titration of apo-DXPS with ThTTDP. Type of data set: binding. The following applies: for Kd: read-out: Kd,ThTTDP, CD titration, CD331.
The nature of data set [6]: UV spectroscopic determination of the pKa for N1-protonated bacimethrin. As to conditions: aqueous triple buffer. Type of data set: physicochemical.
Where [7] appears, read: in the presence of 10 µM MeOThDP.

Where two headings read alike, the source gives them in different places.

DXPS, sequence (P77488 whole entry): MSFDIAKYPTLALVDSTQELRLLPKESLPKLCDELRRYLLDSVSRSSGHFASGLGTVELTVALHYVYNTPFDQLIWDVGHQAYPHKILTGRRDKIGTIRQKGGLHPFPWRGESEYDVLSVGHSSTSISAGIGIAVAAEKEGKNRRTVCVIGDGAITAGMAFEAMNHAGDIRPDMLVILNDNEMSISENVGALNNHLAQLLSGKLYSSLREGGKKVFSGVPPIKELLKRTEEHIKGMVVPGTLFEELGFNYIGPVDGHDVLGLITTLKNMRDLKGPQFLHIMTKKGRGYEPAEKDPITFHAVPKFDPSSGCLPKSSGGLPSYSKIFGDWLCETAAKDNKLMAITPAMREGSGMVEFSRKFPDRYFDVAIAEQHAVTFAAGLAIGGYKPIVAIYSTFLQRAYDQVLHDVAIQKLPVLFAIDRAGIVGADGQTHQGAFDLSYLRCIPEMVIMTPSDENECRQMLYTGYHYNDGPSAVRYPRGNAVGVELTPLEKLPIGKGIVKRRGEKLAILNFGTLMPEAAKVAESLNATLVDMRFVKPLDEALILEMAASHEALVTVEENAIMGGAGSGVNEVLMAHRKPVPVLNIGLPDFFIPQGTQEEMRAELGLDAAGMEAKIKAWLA
T2 sequence (P0AFG8 2-887 limits assumed): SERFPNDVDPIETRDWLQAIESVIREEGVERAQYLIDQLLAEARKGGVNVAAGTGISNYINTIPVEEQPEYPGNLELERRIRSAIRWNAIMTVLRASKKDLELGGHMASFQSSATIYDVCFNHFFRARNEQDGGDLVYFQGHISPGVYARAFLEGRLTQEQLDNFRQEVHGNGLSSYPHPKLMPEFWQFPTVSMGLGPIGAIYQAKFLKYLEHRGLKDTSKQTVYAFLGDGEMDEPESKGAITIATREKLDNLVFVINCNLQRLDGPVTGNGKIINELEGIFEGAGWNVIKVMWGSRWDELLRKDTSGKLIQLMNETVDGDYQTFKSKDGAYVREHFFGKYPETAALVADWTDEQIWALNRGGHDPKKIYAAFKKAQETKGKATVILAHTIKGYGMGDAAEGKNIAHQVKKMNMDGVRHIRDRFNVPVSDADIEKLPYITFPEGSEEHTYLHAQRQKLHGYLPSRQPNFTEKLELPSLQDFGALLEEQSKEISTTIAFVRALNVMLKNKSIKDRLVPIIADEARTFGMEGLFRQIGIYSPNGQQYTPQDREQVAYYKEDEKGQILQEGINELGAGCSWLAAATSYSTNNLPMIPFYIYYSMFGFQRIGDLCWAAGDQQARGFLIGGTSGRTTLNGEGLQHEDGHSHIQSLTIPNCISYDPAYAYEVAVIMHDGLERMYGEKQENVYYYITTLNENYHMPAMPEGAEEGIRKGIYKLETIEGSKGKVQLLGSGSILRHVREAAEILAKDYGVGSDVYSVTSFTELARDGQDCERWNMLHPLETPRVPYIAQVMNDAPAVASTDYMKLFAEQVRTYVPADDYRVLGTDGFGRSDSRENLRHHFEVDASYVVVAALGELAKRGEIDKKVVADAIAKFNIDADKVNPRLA

As to `CC(=O)[PH](=O)[O-].[Na+]` [AcPhi, acetylphosphinic acid sodium salt], the inhibitory constant (Ki) (usually the equilibrium dissociation constant of an inhibitor or competing ligand from its target) at E1p-h [1] was 14 nM; at E1p-ec [3], 760 nM. Also, the dissociation constant Kd (in general, the concentration at which binding is half-saturated) at E1p-ec [2] is 62 nM; at E1p-h [4] (E1p-h complexed with MeOThDP), 1360 nM; at E1p-h [4] (E1p-h complexed with ThDP, unpublished data), 43 nM; on E1p-ec [5] (E1p-ec complexed with 0.20 mM MeOThDP, CD303) it was 1880 nM; on E1p-ec [5] (E1p-ec complexed with 0.20 mM ThDP, CD319) it was 36 nM. The “[AcPhi]/[E1p-ec] molar ratio at maximal CD intensity” value at E1p-ec [5] (E1p-ec complexed with ThDP) is listed as 1/1.
For the compound `Cc1ncc(Cn2c(C)c(CCOP(=O)(O)OP(=O)(O)O)sc2=S)c(N)n1` [ThTTDP, Thiamin 2-thiothiazolone diphosphate], on DXPS (setting [7]), the “[ThTTDP]/[DXPS active centers] molar ratio at saturation” value came to 2.6 and the Kd was determined as 600 ± 140 nM. Moreover, at DXPS (no MeOThDP), the “[ThTTDP]/[DXPS active centers] molar ratio at saturation” value turned out to be 1.26 and the Kd was determined as 390 ± 100 nM.
As for `COc1ncc(CO)c(N)n1` [bacimethrin, 4-amino-5-hydroxymethyl-2-methoxypyrimidine], the pKa (as a rule, the negative logarithm of the acid dissociation constant) in data set [6] came to 5.32 ± 0.03.

The record behind these values is publication PMC4852132 (Biochemistry, 2016).
